We go through one molecule from patent publication US20240315241A1, “ANTIMICROBIAL POLYMERIC COMPOSITION” (priority 2021, published 2024).

For assay [1], the system named is blend of Pseudomonas aeruginosa ATCC 15442, Staphylococcus aureus ATCC 6538, Escherichia coli ATCC 10536, Enterococcus hirae ATCC 10541 and Candida albicans …. In words: Antimicrobial activity, zone of inhibition on TSA Petri dishes (Example 4). Format: cell-based. The settings on record: aqueous solution pH 8.3, [Ag+]=0.1%, 100 μl, 37° C. for 24 h. How it is done:
The antimicrobial activity of an aqueous solution at pH 8.3 of Na^+3[Ag^+(MPA^2−)2]^3− with an ionic concentration of [Ag+]=0.1% was tested against the following blend of microorganism strains (bought from Diagnostic International Distribution S.p.A): Pseudomonas aeruginosa ATCC 15442, Staphylococcus aureus ATCC 6538, Escherichia coli ATCC 10536, Enterococcus hirae ATCC 10541 e Candida albicans ATCC 10231. For each microbial strain, the concentration of the blend was in the range 1.5×10^12−5×10^12 unity forming colonies (UFC). A volume of 100 μl of the blend was seeded in Petri dishes containing a non-selective culture medium TSA (Tryptone Soya Agar) and a sample of 100 μl of said aqueous solution of Na^+3[Ag^+(MPA^2−)2]^3− was put in the centre of each Petri dish in contact with the microbial blend. The Petri dishes were then incubated at 37° C. for 24 h.

For assay [2], the system named is SARS-Cov-2. In words: Antiviral effectiveness towards SARS-Cov-2: virus incubated on treated surface, replication in VeroE6 cells by qRT-PCR. The settings on record: for ΔCt / Logarithmic difference: Ag+ 0.108% aqueous solution on surface; for ΔCt: vs untreated; for Logarithmic difference: vs untreated control. Format: cell-based.
Assay [3] has as its system SARS-Cov-2. As to the kind of experiment: Cytopathic effect in VeroE6 cells infected with treated SARS-Cov-2, optical microscopy. (Protection from cytopathic effect is a common read-out in antiviral testing.)

For the molecule `Cc1nc([S-])sc1CC(=O)[O-].Cc1nc([S-])sc1CC(=O)[O-].[Ag+].[Na+].[Na+].[Na+]` [Aqueous solution containing Ag, Na^+3[Ag^+(MPA^2−)2]^3−], the “zone of inhibition (of the microbial growth)” value in assay [1] is listed as “circa 3 cm”. In addition, the ΔCt in the assay with SARS-Cov-2 [2] (virus 5 minutes, 24 hpi) is listed as 3.04; with SARS-Cov-2 [2] (virus 5 minutes, 48 hpi), 1.91; in the assay on SARS-Cov-2 [2] (virus 5 minutes, 72 hpi) it was 0.61. The Logarithmic difference in the assay with SARS-Cov-2 [2] (virus 5 minutes, 24 hpi) is −0.91; with SARS-Cov-2 [2] (virus 5 minutes, 48 hpi), −0.57; with SARS-Cov-2 [2] (virus 5 minutes, 72 hpi), −0.18. Also, the “reduction of the viral charge” value is listed as “not significant” in the assay on SARS-Cov-2 [2] (Ag+ 0.108%, at a time more distant from the infection) and 0.82 logarithms with SARS-Cov-2 [2] (diluted aqueous solution, Ag+ 0.002%, virus 5 minutes, 24 hours post-infection). Further, the “decrease of the viral charge” value in the assay on SARS-Cov-2 [2] (Ag+ 0.108%, virus 5 minutes, 48 pci) was 0.57 logarithms; in the assay on SARS-Cov-2 [2] (Ag+ 0.108%, virus 5 minutes, 24 h post-infection), 0.91 logarithms. In addition, the cytopathic effect entry in the assay on SARS-Cov-2 [3] (Ag+ 0.002%, 72 hours post-infection) is “small decrease of the cytopathic effect”. In addition, in the assay with SARS-Cov-2 [3] (Ag+ 0.108%, 48 hours post-infection), the “cytopathic effect compared to cells infected with untreated virus” value is given as “lower cytopathic effect”.
